Data from patent EP4488278A1, “SUBSTITUTED PYRIDYL/PYRAZINYL DIHYDROPYRROLOTRIAZINE COMPOUNDS FOR COMBATTING PHYTOPATH-OGENIC FUNGI” (BASF SE, priority 2023, dated 2025).

Key:
Botrytis cinerea [1] = assay: Microtest: activity against the grey mold Botrytis cinerea in the microtiterplate test; assay type: cell-based; conditions: 31 ppm active substance; absorption at 405 nm 7 days after inoculation, 18°C; relative to active compound-free control (100%)
Experimental: The active compounds were formulated separately as a stock solution having a concentration of 10000 ppm in dimethyl sulfoxide.
The stock solutions were mixed according to the ratio, pipetted onto a micro titer plate (MTP) and diluted with water to the stated concentrations. A spore suspension of Botrci cinerea in an aqueous biomalt or yeast-bactopeptone-sodiumacetate solution was then added. The plates were placed in a water vapor-saturated chamber at a temperature of 18°C. Using an absorption photometer, the MTPs were measured at 405 nm 7 days after the inoculation.
The measured parameters were compared to the growth of the active compound-free control variant (100%) and the fungus-free blank value to determine the relative growth in % of the pathogens in the respective active compounds.

Botrytis cinerea [2] = assay: Green house: preventative fungicidal control of Botrytis cinerea on leaves of green pepper; assay type: in vivo; conditions: 250 ppm active substance, green pepper plants sprayed to run-off one day before inoculation; assessed visually as % diseased leaf area after 5 days at 22 to 24°C; untreated plants 90% infected
Experimental: The compound was dissolved in a mixture of acetone and/or dimethylsulfoxide and the wetting agent/emulsifier Wettol, which is based on ethoxylated alkylphenoles, in a ratio (volume) solvent-emulsifier of 99 to 1 to give a total volume of 5 ml. Subsequently, water was added to total volume of 100 ml. This stock solution was then diluted with the described solvent-emulsifier-water mixture to the final concentration given in the table below. Young seedlings of green pepper were grown in pots to the 4 to 5 leaf stage. These plants were sprayed to run-off with previously described spray solution, containing the concentration of active ingredient or mixture mentioned in the table below. The next day the plants were inoculated with an aqueous biomalt or DOB solution containing the spore suspension of Botrytis cinerea. Then the plants were immediately transferred to a humid chamber. After 5 days at 22 to 24°C and a saturated relative humidity, the extent of fungal attack on the leaves was visually assessed as % diseased leaf area.

Row | SMILES | growth of the pathogen (Botrytis cinerea [1]) [%] | growth of the pathogen (Botrytis cinerea [2])
1 | Cc1cc(C2=NC(C)(C)N(C)n3cccc32)cnc1C(F)F [Ex-1, 4-(6-(difluoromethyl)-5-methylpyridin-3-yl)-1,2,2-trimethyl-1,2-dihydropyrrolo[2,1-f][1,2,4]triazine] | 0 | at most 7%
2 | Cc1cc(C2=NC(C)(C)Nn3cccc32)cnc1C(F)F [Ex-2, 4-(6-(difluoromethyl)-5-methylpyridin-3-yl)-2,2-dimethyl-1,2-dihydropyrrolo[2,1-f][1,2,4]triazine] | 0 | –
